{
  "source": "patent US8623859B2",
  "about": "“Bradykinin B1 antagonists” (Evotec AG, priority 2008, dated 2014)",
  "note": "Counter-ions that a name gives are not always drawn.",
  "data": [
    {"target": "T1, human B1 (Homo sapiens, UniProt P46663)", "T1 construct": "host or cells: CHO-K1", "T1 sequence (P46663 1-353)": "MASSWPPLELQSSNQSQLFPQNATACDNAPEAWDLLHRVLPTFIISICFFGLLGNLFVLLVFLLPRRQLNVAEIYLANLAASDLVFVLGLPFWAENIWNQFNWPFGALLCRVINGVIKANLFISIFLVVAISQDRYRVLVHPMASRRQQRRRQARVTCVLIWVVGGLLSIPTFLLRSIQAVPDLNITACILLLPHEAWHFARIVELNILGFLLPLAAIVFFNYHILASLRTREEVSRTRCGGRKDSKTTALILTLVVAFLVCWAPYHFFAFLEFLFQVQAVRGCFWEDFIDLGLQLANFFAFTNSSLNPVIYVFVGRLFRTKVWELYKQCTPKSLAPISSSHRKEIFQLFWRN", "assay": "Calcium flux assay for Bradykinin B1 antagonist, CHO-K1 cell line expressing human B1", "type": "cell-based", "details": "CHO-K1 cells expressing human B1, agonist Lys-(Des-Arg)-Bradykinin, read-out: Potency (IC50 value against human B1)", "procedure,_shortened": "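Inhibition of B1 agonist-evoked intracellular Ca2+ rise was followed by continuous fluorescence at 538 nm, with integrated, background-normalized signals plotted versus log compound concentration. Test compounds (eight 10-fold dilutions, triplicate, 1% DMSO final) were added 30 min at 25° C beforehand to Fluo-4AM-loaded human B1 CHO-K1 cells in pH 7.4 assay buffer.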", "units": {"IC50": "nM"}, "values": [
      {"smiles": "COc1cc(C)c(S(=O)(=O)N(Cc2nc(C(=O)N3CCN(Cc4ccnc(N5CCCC5)c4)CC3)co2)C2CC2)c(C)c1", "note": "[Ex 256, N-Cyclopropyl-4-methoxy-2,6-dimethyl-N-{[4-({4-[(2-pyrrolidin-1-ylpyridin-4-yl)methyl]piperazin-1-yl}carbonyl)-1,3-oxazol-2-yl]methyl}benzenesulfonamide]", "IC50": "100 to 1000"},
      {"smiles": "COc1cc(C)c(S(=O)(=O)N(Cc2nc(C(=O)N(C)CCOc3ccncc3)co2)C2CC2)c(C)c1", "note": "[Ex 257, 2-({Cyclopropyl[(4-methoxy-2,6-dimethylphenyl)sulfonyl]amino}methyl)-N-methyl-N-[2-(pyridin-4-yloxy)ethyl]-1,3-oxazole-4-carboxamide]", "IC50": "100 to 1000"},
      {"smiles": "COc1cc(C)c(S(=O)(=O)N(C)Cc2nnc(C(=O)N3CCN(CC4CCN(C)CC4)CC3)o2)c(C)c1", "note": "[Ex 258, 4-Methoxy-N,2,6-trimethyl-N-{[5-({4-[(1-methylpiperidin-4-yl)methyl]piperazin-1-yl}carbonyl)-1,3,4-oxadiazol-2-yl]methyl}benzenesulfonamide]", "IC50": "< 10"},
      {"smiles": "COc1cc(C)c(S(=O)(=O)N(C)Cc2nnc(C(=O)N3CCN(CCCN4CCCC4)CC3)o2)c(C)c1", "note": "[Ex 259, 4-Methoxy-N,2,6-trimethyl-N-[(5-{[4-(3-pyrrolidin-1-ylpropyl)piperazin-1-yl]carbonyl}-1,3,4-oxadiazol-2-yl)methyl]benzenesulfonamide]", "IC50": "10 to 100"},
      {"smiles": "COc1cc(C)c(S(=O)(=O)N(C)Cc2nnc(C(=O)N3CCN(Cc4ccc(OC)nc4)CC3)o2)c(C)c1", "note": "[Ex 260, 4-Methoxy-N-{[5-({4-[(6-methoxypyridin-3-yl)methyl]piperazin-1-yl}carbonyl)-1,3,4-oxadiazol-2-yl]methyl}-N,2,6-trimethylbenzenesulfonamide trifluoroacetate]", "IC50": "10 to 100"},
      {"smiles": "COc1cc(C)c(S(=O)(=O)N(C)Cc2nnc(C(=O)N3CCN(Cc4ccc(N5CCCC5)nc4)CC3)o2)c(C)c1", "note": "[Ex 261, 4-Methoxy-N,2,6-trimethyl-N-{[5-({4-[(6-pyrrolidin-1-ylpyridin-3-yl)methyl]piperazin-1-yl}carbonyl)-1,3,4-oxadiazol-2-yl]methyl}benzenesulfonamide trifluoroacetate]", "IC50": "< 10"},
      {"smiles": "COc1cc(C)c(S(=O)(=O)N(C)Cc2nnc(C(=O)N3CCN(Cc4ccc(C(F)(F)F)nc4)CC3)o2)c(C)c1", "note": "[Ex 262, 4-Methoxy-N,2,6-trimethyl-N-({5-[(4-{[6-(trifluoromethyl)pyridin-3-yl]methyl}piperazin-1-yl)carbonyl]-1,3,4-oxadiazol-2-yl}methyl)benzenesulfonamide trifluoroacetate]", "IC50": "100 to 1000"},
      {"smiles": "COc1cc(C)c(S(=O)(=O)N(C)Cc2nnc(C(=O)N3CCN(CC4CCN(C(=O)OC(C)(C)C)CC4)CC3)o2)c(C)c1", "note": "[Ex 263, tert-Butyl 4-[(4-{[5-({[(4-methoxy-2,6-dimethylphenyl)sulfonyl](methyl)amino}methyl)-1,3,4-oxadiazol-2-yl]carbonyl}piperazin-1-yl)methyl]piperidine-1-carboxylate]", "IC50": "100 to 1000"},
      {"smiles": "COc1cc(C)c(S(=O)(=O)N(C)Cc2nnc(C(=O)N3CCN(CC4CCN(C(C)C)CC4)CC3)o2)c(C)c1", "note": "[Ex 264, 4-Methoxy-N,2,6-trimethyl-N-({5-[(4-{[1-(1-methylethyl)piperidin-4-yl]methyl}piperazin-1-yl)carbonyl]-1,3,4-oxadiazol-2-yl}methyl)benzenesulfonamide trifluoroacetate]", "IC50": "100 to 1000"},
      {"smiles": "COc1cc(C)c(S(=O)(=O)N(C)Cc2nnc(C(=O)N3CCN(CC4CCN(C5CCC5)CC4)CC3)o2)c(C)c1", "note": "[Ex 265, N-{[5-({4-[(1-Cyclobutylpiperidin-4-yl)methyl]piperazin-1-yl}carbonyl)-1,3,4-oxadiazol-2-yl]methyl}-4-methoxy-N,2,6-trimethylbenzenesulfonamide trifluoroacetate]", "IC50": "100 to 1000"}
    ]}
  ]
}
